Results taken from the kinase profiling compilation of Christmann-Franck et al. (2016).
pKd: −log10 of the molar value.

Experiments:
Experiment in all cases: KINOMEscan competition binding
ABL1 (human) = ABL1 (human) (UniProt P00519)
[1] = molecular target: ABL1 (human), P00519 [F317I]
[2] = molecular target: ABL1 (human), P00519 [M351T]
[3] = molecular target: ABL1 (human), P00519 [T315I]
ANKK1 (human) = ANKK1 (human) (UniProt Q8NFD2)
BLK (human) = BLK (human) (UniProt P51451)
CAMKK1 (human) = CAMKK1 (human) (UniProt Q8N5S9)
CDC2L2 (human) = CDC2L2 (human) (UniProt Q9UQ88)
CDK3 (human) = CDK3 (human) (UniProt Q00526)
CDKL2 (human) = CDKL2 (human) (UniProt Q92772)
CDKL5 (human) = CDKL5 (human) (UniProt O76039)
CSNK1D (human) = CSNK1D (human) (UniProt P48730)
CSNK1E (human) = CSNK1E (human) (UniProt P49674)
DDR2 (human) = DDR2 (human) (UniProt Q16832)
EPHA4 (human) = EPHA4 (human) (UniProt P54764)
ERBB4 (human) = ERBB4 (human) (UniProt Q15303)
FES (human) = FES (human) (UniProt P07332)
FGFR2 (human) = FGFR2 (human) (UniProt P21802)
FGFR4 (human) = FGFR4 (human) (UniProt P22455)
FLT3 (human) = FLT3 (human) (UniProt P36888)
[4] = molecular target: FLT3 (human), P36888 [K663Q]
GSK3A (human) = GSK3A (human) (UniProt P49840)
HIPK1 (human) = HIPK1 (human) (UniProt Q86Z02)
LIMK1 (human) = LIMK1 (human) (UniProt P53667)
MAP3K10 (human) = MAP3K10 (human) (UniProt Q02779)
MAP4K5 (human) = MAP4K5 (human) (UniProt Q9Y4K4)
MAPK14 (human) = MAPK14 (human) (UniProt Q16539)
MAPK9 (human) = MAPK9 (human) (UniProt P45984)
MUSK (human) = MUSK (human) (UniProt O15146)
MYLK4 (human) = MYLK4 (human) (UniProt Q86YV6)
MYO3A (human) = MYO3A (human) (UniProt Q8NEV4)
MYO3B (human) = MYO3B (human) (UniProt Q8WXR4)
PAK2 (human) = PAK2 (human) (UniProt Q13177)
PIK3CA (human) = PIK3CA (human) (UniProt P42336)
[5] = molecular target: PIK3CA (human), P42336 [Q546K]
RIOK2 (human) = RIOK2 (human) (UniProt Q9BVS4)
RPS6KA4 KD2 (human) = RPS6KA4 KD2 (human) (UniProt O75676)
SIK2 (human) = SIK2 (human) (UniProt Q9H0K1)
STK10 (human) = STK10 (human) (UniProt O94804)
TTK (human) = TTK (human) (UniProt P33981)
YSK4 (human) = YSK4 (human) (UniProt Q56UN5)

Chain of RPS6KA4 KD2 (human) (O75676 whole entry, looked up): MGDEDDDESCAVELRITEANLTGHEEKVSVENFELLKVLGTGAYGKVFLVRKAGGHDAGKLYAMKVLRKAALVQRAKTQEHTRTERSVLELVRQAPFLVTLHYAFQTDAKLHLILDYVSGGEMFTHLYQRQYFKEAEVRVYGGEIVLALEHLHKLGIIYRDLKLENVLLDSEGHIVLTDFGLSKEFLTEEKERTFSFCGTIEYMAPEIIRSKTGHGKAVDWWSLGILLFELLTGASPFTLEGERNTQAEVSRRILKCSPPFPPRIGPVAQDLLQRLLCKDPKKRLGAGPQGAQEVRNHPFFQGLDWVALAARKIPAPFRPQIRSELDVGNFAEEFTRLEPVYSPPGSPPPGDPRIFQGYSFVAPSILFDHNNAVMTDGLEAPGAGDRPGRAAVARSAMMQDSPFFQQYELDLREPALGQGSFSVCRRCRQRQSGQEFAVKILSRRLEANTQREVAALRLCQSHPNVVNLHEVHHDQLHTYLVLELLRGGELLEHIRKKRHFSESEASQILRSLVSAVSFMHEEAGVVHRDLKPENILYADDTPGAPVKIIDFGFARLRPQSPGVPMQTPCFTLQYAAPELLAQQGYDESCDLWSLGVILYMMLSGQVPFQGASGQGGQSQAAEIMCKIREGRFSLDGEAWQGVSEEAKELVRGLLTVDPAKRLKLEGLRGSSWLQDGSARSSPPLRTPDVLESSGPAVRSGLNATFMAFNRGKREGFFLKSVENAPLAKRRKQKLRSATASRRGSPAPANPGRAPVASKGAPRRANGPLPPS
Chain of LIMK1 (human) (P53667 whole entry, looked up): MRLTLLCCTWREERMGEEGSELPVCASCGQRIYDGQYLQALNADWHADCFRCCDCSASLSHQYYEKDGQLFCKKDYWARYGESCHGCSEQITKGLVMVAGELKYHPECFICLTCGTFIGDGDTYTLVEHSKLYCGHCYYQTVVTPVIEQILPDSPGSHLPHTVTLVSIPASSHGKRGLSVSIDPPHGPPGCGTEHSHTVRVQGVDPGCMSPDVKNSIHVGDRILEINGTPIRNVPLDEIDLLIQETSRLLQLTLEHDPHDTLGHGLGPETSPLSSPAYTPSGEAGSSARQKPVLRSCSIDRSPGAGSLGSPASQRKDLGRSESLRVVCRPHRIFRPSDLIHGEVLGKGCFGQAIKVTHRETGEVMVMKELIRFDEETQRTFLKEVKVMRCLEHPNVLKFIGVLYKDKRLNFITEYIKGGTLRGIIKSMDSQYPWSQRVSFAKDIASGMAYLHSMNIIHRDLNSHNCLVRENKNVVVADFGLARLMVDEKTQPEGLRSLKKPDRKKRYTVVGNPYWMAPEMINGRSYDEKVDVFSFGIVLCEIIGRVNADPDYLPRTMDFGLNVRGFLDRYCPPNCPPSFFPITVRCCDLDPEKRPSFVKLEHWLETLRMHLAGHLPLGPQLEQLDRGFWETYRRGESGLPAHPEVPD
Chain of CSNK1D (human) (P48730 whole entry, looked up): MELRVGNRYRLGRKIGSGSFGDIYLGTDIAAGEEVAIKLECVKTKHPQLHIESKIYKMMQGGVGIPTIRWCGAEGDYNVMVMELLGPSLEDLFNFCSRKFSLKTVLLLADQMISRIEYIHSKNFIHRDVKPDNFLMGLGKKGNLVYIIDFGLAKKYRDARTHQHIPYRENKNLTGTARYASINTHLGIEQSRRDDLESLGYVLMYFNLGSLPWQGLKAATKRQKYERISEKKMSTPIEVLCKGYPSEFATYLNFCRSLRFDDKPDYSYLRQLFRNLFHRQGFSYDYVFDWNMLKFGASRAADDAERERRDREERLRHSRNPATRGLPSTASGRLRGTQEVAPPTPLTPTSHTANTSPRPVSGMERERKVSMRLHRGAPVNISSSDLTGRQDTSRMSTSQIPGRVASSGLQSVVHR
Chain of MAPK14 (human) (Q16539 whole entry, looked up): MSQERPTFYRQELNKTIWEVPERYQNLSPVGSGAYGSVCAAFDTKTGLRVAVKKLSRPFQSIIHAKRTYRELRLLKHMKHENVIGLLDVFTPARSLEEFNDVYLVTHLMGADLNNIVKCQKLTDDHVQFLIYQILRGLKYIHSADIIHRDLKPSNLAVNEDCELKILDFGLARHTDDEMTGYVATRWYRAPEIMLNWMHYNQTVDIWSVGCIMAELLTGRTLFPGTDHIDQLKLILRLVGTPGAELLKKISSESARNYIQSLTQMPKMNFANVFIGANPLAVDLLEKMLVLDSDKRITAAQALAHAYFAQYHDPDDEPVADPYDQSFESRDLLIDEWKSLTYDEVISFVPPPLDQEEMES
Chain of MYO3B (human) (Q8WXR4 whole entry, looked up): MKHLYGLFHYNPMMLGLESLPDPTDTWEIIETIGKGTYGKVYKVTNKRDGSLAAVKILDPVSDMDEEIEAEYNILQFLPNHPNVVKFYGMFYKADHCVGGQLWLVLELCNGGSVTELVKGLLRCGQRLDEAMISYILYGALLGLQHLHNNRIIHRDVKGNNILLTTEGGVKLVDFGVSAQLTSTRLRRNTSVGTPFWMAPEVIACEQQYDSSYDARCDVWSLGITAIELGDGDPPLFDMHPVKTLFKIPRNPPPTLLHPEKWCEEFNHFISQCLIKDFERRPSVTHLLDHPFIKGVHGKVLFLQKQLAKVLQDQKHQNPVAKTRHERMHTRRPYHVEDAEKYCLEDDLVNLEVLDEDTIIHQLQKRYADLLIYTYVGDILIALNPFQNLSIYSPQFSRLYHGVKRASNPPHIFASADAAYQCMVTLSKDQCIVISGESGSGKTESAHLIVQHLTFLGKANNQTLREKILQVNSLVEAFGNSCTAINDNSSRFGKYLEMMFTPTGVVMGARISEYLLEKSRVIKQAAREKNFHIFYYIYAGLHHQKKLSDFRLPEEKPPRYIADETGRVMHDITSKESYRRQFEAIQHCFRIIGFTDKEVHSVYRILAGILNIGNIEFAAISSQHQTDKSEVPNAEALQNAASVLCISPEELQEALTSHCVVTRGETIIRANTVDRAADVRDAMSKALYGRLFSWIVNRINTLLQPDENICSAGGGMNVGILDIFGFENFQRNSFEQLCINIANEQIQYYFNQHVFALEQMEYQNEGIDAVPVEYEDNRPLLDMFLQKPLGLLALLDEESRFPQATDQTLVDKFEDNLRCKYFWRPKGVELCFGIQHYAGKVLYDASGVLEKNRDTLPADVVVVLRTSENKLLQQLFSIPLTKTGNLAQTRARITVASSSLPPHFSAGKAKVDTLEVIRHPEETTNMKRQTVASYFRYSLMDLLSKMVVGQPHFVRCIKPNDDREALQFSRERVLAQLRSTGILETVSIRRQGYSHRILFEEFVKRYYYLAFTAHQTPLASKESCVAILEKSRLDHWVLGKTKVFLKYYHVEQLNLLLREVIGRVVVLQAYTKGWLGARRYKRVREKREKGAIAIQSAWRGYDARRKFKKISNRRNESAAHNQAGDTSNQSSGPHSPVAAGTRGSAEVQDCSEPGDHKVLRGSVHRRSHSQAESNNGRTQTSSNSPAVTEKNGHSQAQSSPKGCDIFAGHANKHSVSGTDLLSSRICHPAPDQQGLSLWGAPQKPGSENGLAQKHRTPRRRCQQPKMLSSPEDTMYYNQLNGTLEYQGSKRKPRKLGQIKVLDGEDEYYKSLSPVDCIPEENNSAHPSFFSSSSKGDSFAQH
Chain of MYLK4 (human) (Q86YV6 whole entry, looked up): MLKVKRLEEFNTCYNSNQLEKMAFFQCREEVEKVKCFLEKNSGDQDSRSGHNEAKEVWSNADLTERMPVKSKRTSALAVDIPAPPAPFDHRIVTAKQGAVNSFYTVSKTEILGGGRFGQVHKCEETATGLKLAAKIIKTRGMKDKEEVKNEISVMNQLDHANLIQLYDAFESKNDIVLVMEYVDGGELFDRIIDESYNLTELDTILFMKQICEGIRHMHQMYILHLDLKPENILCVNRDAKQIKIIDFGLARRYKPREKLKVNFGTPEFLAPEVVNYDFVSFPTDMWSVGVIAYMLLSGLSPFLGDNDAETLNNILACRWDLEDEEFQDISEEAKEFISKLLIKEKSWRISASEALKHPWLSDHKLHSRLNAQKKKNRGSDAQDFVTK
Chain of DDR2 (human) (Q16832 whole entry, looked up): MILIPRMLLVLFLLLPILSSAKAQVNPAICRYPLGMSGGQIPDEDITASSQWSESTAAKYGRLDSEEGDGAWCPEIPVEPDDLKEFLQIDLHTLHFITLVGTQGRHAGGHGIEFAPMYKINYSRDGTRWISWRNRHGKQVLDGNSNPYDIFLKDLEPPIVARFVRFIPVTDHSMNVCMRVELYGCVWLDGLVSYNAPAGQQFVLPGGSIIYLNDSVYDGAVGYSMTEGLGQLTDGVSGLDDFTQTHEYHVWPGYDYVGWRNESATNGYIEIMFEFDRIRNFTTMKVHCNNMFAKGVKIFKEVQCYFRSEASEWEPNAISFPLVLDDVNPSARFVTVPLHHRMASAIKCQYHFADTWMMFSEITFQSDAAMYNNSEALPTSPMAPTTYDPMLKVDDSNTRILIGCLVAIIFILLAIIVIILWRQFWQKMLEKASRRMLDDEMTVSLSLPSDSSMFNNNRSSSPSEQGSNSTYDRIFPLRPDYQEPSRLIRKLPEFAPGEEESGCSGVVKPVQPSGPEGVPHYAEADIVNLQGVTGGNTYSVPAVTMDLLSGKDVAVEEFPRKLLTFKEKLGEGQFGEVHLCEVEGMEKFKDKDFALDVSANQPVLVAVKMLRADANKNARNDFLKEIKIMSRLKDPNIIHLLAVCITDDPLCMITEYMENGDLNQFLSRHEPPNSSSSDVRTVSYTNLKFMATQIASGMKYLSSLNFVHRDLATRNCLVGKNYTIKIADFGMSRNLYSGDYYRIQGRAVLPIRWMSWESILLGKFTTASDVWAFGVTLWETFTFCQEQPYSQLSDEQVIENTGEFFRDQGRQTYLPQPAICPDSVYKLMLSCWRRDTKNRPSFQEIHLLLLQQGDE

A pKd (ABL1 (human)) of 8.55, a pKd [1] of 8.60 and a pKd [2] of 8.49 were found for `COc1cc2ncnc(Oc3cccc(NC(=O)Nc4cc(C(C)(C)C(F)(F)F)on4)c3)c2cc1OC` in this work. The pKd [3] was 8.59, the pKd (ANKK1 (human)) was 5.34 and the pKd (BLK (human)) was 8.12. The pKd (CAMKK1 (human)) was 4.80, the pKd (CDC2L2 (human)) was 6.77 and the pKd (CDK3 (human)) was 4.59. For the same molecule, the pKd (CDKL2 (human)) was 7.37, the pKd (CDKL5 (human)) was 7.04 and the pKd (CSNK1D (human)) was 4.89. It also gave a pKd (CSNK1E (human)) of 4.80, a pKd (DDR2 (human)) of 8.27 and a pKd (EPHA4 (human)) of 7.51. The pKd (ERBB4 (human)) was 6.68, the pKd (FES (human)) was 6.96 and the pKd (FGFR2 (human)) was 5.52. It also gave a pKd (FGFR4 (human)) of 6.35, a pKd (FLT3 (human)) of 8.38 and a pKd [4] of 8.38. It also gave a pKd (GSK3A (human)) of 5.22, a pKd (HIPK1 (human)) of 5.33 and a pKd (LIMK1 (human)) of 4.57. For the same molecule, the pKd (MAP3K10 (human)) was 5.25, the pKd (MAP4K5 (human)) was 7.54 and the pKd (MAPK14 (human)) was 7.42. For the same molecule, the pKd (MAPK9 (human)) was 8.39, the pKd (MUSK (human)) was 7.47 and the pKd (MYLK4 (human)) was 4.92. The pKd (MYO3A (human)) was 4.82, the pKd (MYO3B (human)) was 5.17 and the pKd (PAK2 (human)) was 4.47. It also gave a pKd (PIK3CA (human)) of 4.57, a pKd [5] of 4.55 and a pKd (RIOK2 (human)) of 4.44. It also gave a pKd (RPS6KA4 KD2 (human)) of 4.44, a pKd (SIK2 (human)) of 4.62 and a pKd (STK10 (human)) of 8.77. It also gave a pKd (TTK (human)) of 5.77 and a pKd (YSK4 (human)) of 8.43.
